Reference: US7897588B2, “Agents and methods for enhancing bone formation” (The Regents of the University of California, priority 2003, dated 2011)

How the values were obtained:
[1] = tested on: M2 cells; assay: Adipogenesis of troglitazone-treated M2 cells (oil Red O staining, adipocyte count); type: cell-based, mouse; settings: M2 cells treated with Tro 10 μM, oxysterols 10 μM, 10 days
Protocol: (§1) Von Kossa and oil red O staining—Matrix mineralization in cell monolayers was detected by silver nitrate staining as previously described. Oil red O staining for detection of adipocytes was performed as previously described.
Test 1: M2 cells at 90% confluence were treated with vehicle (C), PPAR-γ activator, troglitazone 10 uM (Tro), alone or in combination with 10 μM oxysterols 20S-, 22R-, or 25S-hydroxycholesterol. After 8 days, adipocytes were identified by oil Red 0 staining and quantified by counting under a phase contrast microscope. FIG. 6A is a bar graph depicting the effect of oxysterols on reducing adipogenesis of MSC.
Test 2: (A) M2 cells at confluence were treated in RPMI containing 10% FBS with control vehicle or 10 μM troglitazone (Tro) in the absence or presence of 10 μM 20S or 22S oxysterols. After 10 days, adipocytes were visualized by oil Red O staining and quantified by light microscopy, shown in (B). Data from a representative of four experiments are shown, reported as the mean SD of quadruplicate determinations (p<0.001 for Tro vs. Tro+20S and Tro+22S). (C) M2 cells were treated at confluence with 10 μM Tro, alone or in combination with 10 μM 20S oxysterol. After 10 days, total RNA was isolated and analyzed for lipoprotein lipase (LPL), adipocyte P2 gene (aP2) or 18S rRNA expression by Northern blotting as described (Ref). Data from densitometric analysis of the Northern blot is shown in (D) as the average of duplicate samples, normalized to 18S rRNA.

[2] = tested on: M2-10B4 mouse marrow stromal cell line; assay: Alkaline phosphatase (ALP) activity assay in M2 cells; type: cell-based; settings: for inhibition of oxysterol-induced alkaline phosphatase activity: 22R+20S, SC-560 10 μM, ACA 25 μM, AACOCF3 20 μM, PD98059 20 μM
Protocol: (§2) Cells: M2-10B4 mouse marrow stromal cell line obtained from American Type Culture Collection (ATCC, Rockville, Md., U.S.A.) was derived from bone marrow stromal cells of a (C57BL/6J×C3H/HeJ) F1 mouse, and support human and murine myelopoiesis in long-term cultures (as per ATCC) and have the ability to differentiate into osteoblastic and adipocytic cells. Unless specified, these cells were cultured in RPMI 1640 containing 10% heat-inactivated FBS, and supplemented with 1 mM sodium pyruvate, 100 U/ml penicillin, and 100 […] (all from Irvine Scientific).
Alkaline phosphatase activity assay: Colorimetric alkaline phosphatase (ALP) activity assay on whole cell extracts was performed as previously described.
Test 1: M2 cells at confluence were treated with control vehicle (C), or 10 μM oxysterols, in an osteogenic medium consisting of RPMI 1640 to which 10% fetal bovine serum (FBS), 50 μg/ml ascorbate and 3 mM beta-glycerophosphate (βGP) were added. After 3 days of incubation, alkaline phosphatase (ALP) activity was determined in cell homogenates by a colorimetric assay. […] FIG. 3A is a bar graph depicting the effect of various oxysterols on alkaline phosphatase activity in M2 cells.
M2 cells at confluence were treated in osteogenic medium with control vehicle (C) or a combination of 22R and 20S oxysterols, at the indicated concentrations. ALP activity was measured after 3 days as described above. […] FIG. 3B is a bar graph depicting the effect of a combination of oxysterols at various doses on alkaline phosphatase activity in M2 cells.
Test 2: M2 cells were grown in RPMI medium containing 10% fetal bovine serum (FBS). At confluence, the cells were treated in RPMI containing 5% FBS plus ascorbate at 50 μg/ml and β-glycerophosphate at 3 mM to induce osteoblastic differentiation. Adipogenic differentiation was induced by treating the cells in growth medium plus 10 ˜M troglitazone. A vehicle (C) or oxysterol treatment was applied to cells in a variety of doses (in μM): 20S-Hydroxycholesterol, 25-Hydroxycholesterol, 22R-Hydroxycholesterol; 22S-Hydroxycholesterol; 7-ketocholesterol. Cells were always treated at 90% confluence. After 4 days, alkaline phosphatase activity was determined in whole cell lysates and normalized to protein. Alternatively, MSC cultures were prepared and treated with oxysterols as described above. Cells were treated at 90% confluence with the combination of 22R-Hydroxycholesterol and 20S-Hydroxycholesterol, each at 5 uM, for 4 to 96 hours. The oxysterols where removed and fresh media without oxysterols was added for a total duration of 96 hours. Alkaline phosphatase activity was measured in whole cell extracts and normalized to protein.
M2 cells were treated at 90% confluence with vehicle (C), or oxysterols 20S-Hydroxycholesterol or 22S-Hydroxycholesterol at (0.5 μM) or (1 μM), in the absence or presence of cytochrome P450 inhibitor (SKF525A 10 μM (+)). MSC cultures were also treated at 90% confluence with vehicle (C), or 20S-Hydroxycholesterol (2 μM), in the absence or presence of cytochrome P450 […] (Benzylimidazole 50 μM) or SKF525A (10 μM). After 4 days, alkaline phosphatase activity was measured in whole cell extracts and normalized to protein.
Next, a combination of 22R and 20S oxysterols (RS, 2.5 μM each) were added in the presence or absence of SC as indicated. After 3 days, ALP activity was measured as described earlier. […] (B) M2 cells were treated as described in (A) and after 10 days matrix mineralization in cultures was quantified by a ^45Ca incorporation assay as described earlier.

[3] = tested on: M2-10B4 mouse marrow stromal cell line; assay: Matrix mineralization in M2 cells (von Kossa staining, 45Ca incorporation assay); type: cell-based; settings: 22R+20S, 10 days, SC-560 10 μM, ACA 25 μM, AACOCF3 20 μM, PD98059 20 μM
Protocol: as §2, §1
^45Ca incorporation assay—Matrix mineralization in cell monolayers was quantified using the ^45Ca incorporation assay as previously described.
M2 cells at confluence were treated in osteogenic medium with control vehicle or 5 μM oxysterols, alone or in combination as indicated. After 14 days, mineralization was identified by a von Kossa staining, which appears black. FIG. 3C is a depiction of von Kossa staining of M2 cells exposed to various conditions.
M2 cells were treated with control vehicle (C) or a combination of 22R and 20S oxysterols at increasing concentrations. After 14 days, matrix mineralization in cultures was quantified using a ^45Ca incorporation assay. […] FIG. 3D is a bar graph depicting the effect of a combination of oxysterols at various doses on calcium incorporation in M2 cells.
(§3) Next, a combination of 22R and 20S oxysterols (RS, 2.5 μM each) were added in the presence or absence of SC as indicated. After 3 days, ALP activity was measured as described earlier. […] (B) M2 cells were treated as described in (A) and after 10 days matrix mineralization in cultures was quantified by a ^45Ca incorporation assay as described earlier. Results from a representative of three experiments are shown, reported as the mean±SD of quadruplicate determinations, normalized to protein concentration. (C) M2 cells were pretreated with 20 μM SC for 4 hours, followed by the addition of RS in the presence or absence of SC as described above. After 8 days, total RNA was isolated and analyzed for osteocalcin (Osc) and 18S rRNA expression by Northern blotting as previously described. Data from densitometric analysis of the Northern blot is shown in (D) as the average of duplicate samples, normalized to 18S rRNA. (E) M2 cells at confluence were pretreated for 2 hours with control vehicle (C), or PLA2 inhibitors ACA (25 μM) and AACOCF3 (AAC, 20 μM), in osteogenic medium. Next, a combination of 22R and 20S oxysterols (RS, 2.5 μM) was added in the presence or absence of the inhibitors as indicated. After 3 days, ALP activity was measured as previously described. Data from a representative of three experiments are shown, reported as the mean±SD of quadruplicate determinations, normalized to protein concentration (p<0.01 for RS vs. RS+ACA and RS+AAC). (F) M2 cells were treated as described in (E). After 10 days, matrix minerliazation in cultures was quantified using a ^45Ca incorporation assay as previously described. Results from a representative of three experiments are shown, reported as the mean of quadruplicate determinations±SD, normalized to protein concentration (p<0.01 for RS vs. RS+ACA and RS+AAC).
(A) M2 cells at confluence were pretreated for four hours with RPMI containing 1% FBS, followed by treatment with control vehicle or 5 μM 20S oxysterol for 1, 4, or 8 hours. Next total cell extracts were prepared and analyzed for levels of native or phosphorylated ERK (pERK) using specific antibodies as previously described.

[4] = tested on: M2 cells; assay: Toxicity of COX inhibitors in M2 cell cultures; type: cell-based, mouse
[5] = tested on: marrow stromal cells; assay: Osteogenic activity of marrow stromal cells (alkaline phosphatase, mineral formation), overall; type: cell-based, mouse; settings: M2 cells; SC-560 at 1-20 μM; NS-398 at 20 μM
Protocol: as §3, with “Data from a representative of three experiments are shown, reported as the mean±SD of quadruplicate determinations, normalized to protein concentration (p<0.01 for RS vs. RS+ACA and RS+AAC). (F) M2 cells were treated as described in (E).” left out, “Results from a representative of three experiments are shown, reported as the mean of quadruplicate determinations±SD, normalized to protein concentration (p<0.01 for RS vs. RS+ACA and RS+AAC).” left out

## CC(C)CCC[C@@H](C)[C@H]1CC[C@H]2[C@@H]3C(=O)C=C4C[C@@H](O)CC[C@]4(C)[C@H]3CC[C@]12C [7K, 7-ketocholesterol, reference compound]
[1]
  inhibition of adipogenesis: unable to inhibit
[2]; osteogenic medium, 10 μM oxysterols, 3 days
  induction of alkaline phosphatase activity: did not induce

## CCCC(C(=O)OCCN(CC)CC)(c1ccccc1)c1ccccc1.Cl [SKF525A]
[2]; 20S or 22S 0.5 or 1 μM, SKF525A 10 μM, 4 days
  effect on the osteogenic effects of the oxysterols (alkaline phosphatase activity): potentiated

## COc1cccc(-c2cc(=O)c3ccccc3o2)c1N [PD98059]
[3]
  inhibition of oxysterol-induced mineralization: inhibited

## CCCCCc1ccc(/C=C/C(=O)Nc2ccccc2C(=O)O)cc1 [ACA]
[3]
  inhibition of oxysterol-induced mineralization: inhibited
[2]
  inhibition of oxysterol-induced alkaline phosphatase activity: inhibited

## CS(=O)(=O)Nc1ccc([N+](=O)[O-])cc1OC1CCCCC1 [NS-398]
[4]
  highest non-toxic dose: 20 µM
[5]
  inhibition of the osteogenic effects of oxysterol combinations: negligible inhibitory effects

## CCCCC/C=C\C/C=C\C/C=C\C/C=C\CCCC(=O)O [arachidonic acid]
[2]; 25 μM arachidonic acid (data not shown)
  reversal of the effect of the PLA2 inhibitors on oxysterol-induced alkaline phosphatase activity: reversed

## CCCCC/C=C\C/C=C\C/C=C\C/C=C\CCCC(=O)C(F)(F)F [AACOCF3]
[3]
  inhibition of oxysterol-induced mineralization: inhibited
[2]
  inhibition of oxysterol-induced alkaline phosphatase activity: inhibited

## CCCCC[C@H](O)/C=C/[C@H]1[C@H](O)CC(=O)[C@@H]1C/C=C\CCCC(=O)O [PGE2, prostaglandin E2]
[2]; 1 μM PGE2 (data not shown)
  reversal of the effect of the COX-1 inhibitor on oxysterol-induced alkaline phosphatase activity: reversed
